# Measurements reported in patent US4071528A, “Certain thiazolidine and tetrahydrothiazine compounds” (May & Baker Limited, priority 1975, dated 1978).
# Read-outs that look alike come from different tables or passages of the source.
# Key:
# [1] = system: Nippostrongylus brasiliensis; assay: Activity against roundworms in rats, A.1: treatment 6 days after infection (patent infection), post-mortem worm counts; assay type: in vivo; settings: 48 h, oral, 100 mg/kg, treated 6 days after infection, read-out: % Reduction of mean worm load
# Method: In the Tables of results "s.c." means subcutaneous and the doses are expressed in mg/kg animal body weight. […] A.1. Rats were infected with 100 Nippostrongylus brasiliensis larvae each, by the subcutaneous route. After 6 days, when the infection was patent, the rats were randomised and allotted to groups of 5 animals each, ready for treatment. One group was used for each dose level of the test compound, which was administered by the oral or subcutaneous route, and in each experiment, one group of 10 animals was left untreated as a control. All the rats were killed for post-mortem worm counts 48 hours after treatment. The activities, expressed in terms of the percentage reduction in mean worm load of the treated groups compared with the untreated group, are shown in Table I.
# [2] = system: Nippostrongylus brasiliensis; assay: Activity against roundworms in rats, A.2: treatment 24 hours after infection, post-mortem worm counts; assay type: in vivo; settings: 144 h, treated 24 hours after infection, read-out: % Reduction of mean worm load
# Method: In the Tables of results "s.c." means subcutaneous and the doses are expressed in mg/kg animal body weight. […] A.2. Rats were infected with 100 Nippostrongylus brasiliensis larvae each, by the subcutaneous route. After 24 hours the rats were randomised and allotted to groups of 5 animals each, ready for treatment. Doses of the test compound were then administered to each group by the oral or subcutaneous route, one group of 10 animals being left untreated as a control. All the rats were killed for post-mortem worm counts 6 days after dosing. The activities, expressed in terms of the percentage reduction in mean worm load of the treated groups compared with the untreated control group, are given below in Table II.
# Haemonchus contortus [3] = assay: B.1 Activity against adult Haemonchus contortus in lambs; assay type: in vivo; settings: s.c. 10 mg/kg (methanesulphonate salt), adult stage
# Method: (§1) B.1. Activity against Haemonchus contortus and Nematodirus spathiger in their adult stages in lambs.
# (§2) Worm-free, 8-10 week old lambs were each infected with 5000 H. contortus and 15000 N. spathiger larvae. Approximately 3 weeks later, doses of test compound A were administered to each group of 2 animals, by the subcutaneous route, one group of 2 animals being left untreated as a control.
# (§3) Individual faecal H. contortus egg counts were determined 1 day before and 5- 7 days after treatment, when all the lambs were killed for post-mortem worm counts. The activities, expressed in terms of the percentage reduction in mean worm burden of each worm species compared with the untreated control group, are given below.
# Nematodirus spathiger [4] = assay: B.1 Activity against adult Nematodirus spathiger in lambs; assay type: in vivo; settings: s.c. 10 mg/kg (methanesulphonate salt), adult stage
# Method: as §1, §2, §3
# Haemonchus contortus [5] = assay: B.2 Activity against Haemonchus contortus in 4th larval and adult stages in lambs; assay type: in vivo; settings: oral 4 mg/kg
# Method: (§4) B.2. Activity against Haemonchus contortus, Ostertagia circumcincta, Trichostrongylus axei, Trichostrongylus colubriformis and Nematodirus spathiger in their 4th larval and adult stages in lambs.
# (§5) Worm-free, 8-10 week old lambs were each infected with 5,000 H. contortus, 15,000 O. circumcincta, 20,000 T. axei, 15,000 T. colubriformis and 15,000 N. spathiger larvae.
# (§6) Doses of test compound A of 4 mg/kg animal body weight were then administered to each group of 2 animals, by the oral route, after 7 days or 25 days to examine the effects against the 4th larval stage and mature adult worms respectively, one group of 2 animals being left untreated as a control. All the lambs were killed for post-mortem worm wounts 28 days after infection. The activities, expressed in terms of the percentage reduction in mean worm burden of each worm species compared with the untreated control group, are given below in Table III.
# Ostertagia circumcincta = assay: B.2 Activity against Ostertagia circumcincta in 4th larval and adult stages in lambs; assay type: in vivo; settings: oral 4 mg/kg
# Method: as §4, §5, §6
# Trichostrongylus axei = assay: B.2 Activity against Trichostrongylus axei in 4th larval and adult stages in lambs; assay type: in vivo; settings: oral 4 mg/kg
# Method: as §4, §5, §6
# [6] = system: Trichostrongylus colubriformis; assay: B.2 Activity against Trichostrongylus colubriformis in 4th larval and adult stages in lambs; assay type: in vivo; settings: oral 4 mg/kg
# Method: as §4, §5, §6
# Nematodirus spathiger [7] = assay: B.2 Activity against Nematodirus spathiger in 4th larval and adult stages in lambs; assay type: in vivo; settings: oral 4 mg/kg
# Method: as §4, §5, §6
# Cooperia oncophora = assay: C.2 Activity against Cooperia oncophora in mature and immature stages in calves; assay type: in vivo; settings: s.c. 25 mg/kg (methanesulphonate salt)
# Method: (§7) C.2. Activity against Cooperia oncophora, Ostertagia ostertagi, and Dictyocaulus viviparus in their mature and immature stages in calves. Worm free, 6-7 week old calves were each infected with 15,000 C. oncophora, 15,000 O. ostertagi and 3,000 D. viviparus larvae. Groups of two animals each were treated subcutaneously with test compound A at a dose of 25 mg/kg animal body weight at 7 days or 25 days after infection, one group of two animals being left untreated as a control. All calves were killed approximately 28 days after infection and were examined for residual worm burdens. The percentage reduction in mean worm burden of each worm species compared with the untreated control group is given below in Table V.
# Ostertagia ostertagi = assay: C.2 Activity against Ostertagia ostertagi in mature and immature stages in calves; assay type: in vivo; settings: s.c. 25 mg/kg (methanesulphonate salt)
# Method: as §7
# Dictyocaulus viviparus = assay: C.2 Activity against Dictyocaulus viviparus in mature and immature stages in calves; assay type: in vivo; settings: s.c. 25 mg/kg (methanesulphonate salt)
# Method: as §7
# Fasciola hepatica = assay: D. Activity against mature and immature liver flukes in sheep; assay type: in vivo; settings: oral 25 mg/kg in gelatin capsules
# Method: D. Activity against mature and immature liver flukes in sheep On the first day of the experiment a group of sheep were each infected with 300 metacercariae of liver fluke Fasciola hepatica and on the 56th day they were each infected with a further 300 metacercariae of F. hepatica. On day 70 of the experiment, doses of the test compounds of 25 mg/kg animal body weight were administered orally in gelatin capsules to groups of two animals per compound. One group of two animals was left untreated as controls. On day 98 of the experiment, all the sheep were killed. The number of mature flukes present in the bile ducts and the numbers of immature flukes present in the rest of the liver were counted. The activities, expressed in terms of the percentage reduction in mean fluke burdens compared with the untreated controls, are shown below in Table VI.
# [8] = Oral acute toxicity (LD50) in mice; settings: mouse, in vivo, observed during next 6 days
# Description: Mice were each treated orally with one of the compounds of formula I, and they were observed during the next 6 days. The LD50 figures obtained (doses lethal to 50% of mice tested) are shown in Table VII, expressed in mg/kg animal body weight.
# Mycosphaerella pinodes = assay: Minimum effective concentration totally inhibiting fungal growth, Mycosphaerella pinodes, potato dextrose agar tubes; assay type: cell-based; settings: Didymella pinodes, 48 h; total inhibition of fungal growth; tested at 50, 10 or 2 ppm; 25° C, 2 days
# Method: Test tubes containing 4.0 ml of molten potato dextrose agar at about 50° C were inoculated with 0.5 ml of suspension of test compound and 0.5 ml of fungal suspension delivered from a sterile syringe to give a final concentration of each compound of 50, 10 or 2 ppm. Two replicate tubes were inoculated with each fungal species. After the addition of test compounds and fungal inoculum to the molten medium the tubes were sloped and the agar was allowed to set. The tubes were incubated at 25° C for either 2 days (Mycosphaerella pinodes) or 3 days (Helminthosporium avenae). […] The suspensions of test compounds were prepared by grinding 0.025 g of test compound with sterile distilled water containing 0.1 ml of 0.1% Texofor FX170 wetting agent, followed by dilution to the concentration desired. The inoculum of Mycosphaerella pinodes was prepared as follows: A one to two week old culture on Coon's agar on plates was scraped off with a glass rod and sterile distilled water and filtered through muslin. The filtrate, containing the spores, was used for inoculation.
# [9] = sc, s.c. (methanesulphonate salt, aqueous)
# [10] = treated at 7 days (4th larval stage)
# [11] = treated at 25 days (mature adult worms)
# [12] = treated 25 days after infection
smiles,measurement,setting,value
"COC(=O)N=C1SCC(=O)N1c1ccc(Sc2ccccc2)cc1NC(=O)CN(C)C [Compound A, 3-[2-(2-dimethylaminoacetamido)-4-phenylthiophenyl]-2-methoxycarbonyliminothiazolidin-4-one]",inhibition in vivo at 100 mg/kg,[1],99%
same,inhibition in vivo at 12.5 mg/kg,[2]; oral,85%
same,inhibition in vivo at 50 mg/kg,[2]; oral,99%
same,inhibition in vivo at 12.5 mg/kg,[2]; [9],91%
same,inhibition in vivo at 50 mg/kg,[2]; [9],99%
same,reduction of the mean worm burden of H. contortus,Haemonchus contortus [3],100%
same,reduction of the mean worm burden of N. spathiger,Nematodirus spathiger [4],99%
same,"Percentage reduction in mean worm burdens, H. contortus",Haemonchus contortus [5]; [10],100%
same,"Percentage reduction in mean worm burdens, H. contortus",Haemonchus contortus [5]; [11],100%
same,"Percentage reduction in mean worm burdens, O. circumcincta",Ostertagia circumcincta; [10],99%
same,"Percentage reduction in mean worm burdens, O. circumcincta",Ostertagia circumcincta; [11],100%
same,"Percentage reduction in mean worm burdens, T. axei",Trichostrongylus axei; [10],100%
same,"Percentage reduction in mean worm burdens, T. axei",Trichostrongylus axei; [11],100%
same,"Percentage reduction in mean worm burdens, T. colubriformis",[6]; [10],100%
same,"Percentage reduction in mean worm burdens, T. colubriformis",[6]; [11],100%
same,"Percentage reduction in mean worm burdens, N. spathiger",Nematodirus spathiger [7]; [10],95%
same,"Percentage reduction in mean worm burdens, N. spathiger",Nematodirus spathiger [7]; [11],97%
same,"% Reduction of mean worm burdens, C. oncophora",Cooperia oncophora; treated 7 days after infection,100%
same,"% Reduction of mean worm burdens, C. oncophora",Cooperia oncophora; [12],100%
same,"% Reduction of mean worm burdens, O. ostertagi",Ostertagia ostertagi; treated 7 days after infection,97%
same,"% Reduction of mean worm burdens, O. ostertagi",Ostertagia ostertagi; [12],100%
same,"% Reduction of mean worm burdens, D. viviparus",Dictyocaulus viviparus; treated 7 days after infection,83%
same,"% Reduction of mean worm burdens, D. viviparus",Dictyocaulus viviparus; [12],82%
same,"Mean % Reduction, Immature flukes",Fasciola hepatica; immature flukes in rest of liver,29%
same,"Mean % Reduction, Mature flukes",Fasciola hepatica; mature flukes in bile ducts,93%
same,LD50 at 144 h,[8],~1000 mg/kg
same,MIC,Mycosphaerella pinodes,< 2 µg/mL
